According to patent US20150315188A1, “COMPOUNDS AND METHODS FOR TREATMENT OF HYPERTENSION” (MEDIVATION TECHNOLOGIES, INC., priority 2012, published 2015):
Marks after values point to notes of the source that are not given here.

How the values were obtained:
dog hepatocytes = test: Stability in the presence of dog hepatocytes; type: in vitro ADME, Beagle dog; conditions: dog hepatocytes, 5 μM, 37° C., average of duplicates; ^a = 0-120 minute time points
Protocol: (§1) Compounds of the invention were tested for stability in the presence of dog, rat and human hepatocytes over a 4 hour period by LC/MS/MS. The study was performed by Integrated Analytical Solutions, Berkeley, Calif.
(§2) Reference Standards and Solutions: Compounds of the invention were stored as powders at ambient temperature in a desiccator and protected from light. Reference stock solutions of Compound Nos. 50a, 50b, 79a, 82, 91a and 178d, as 20 mM in DMSO were prepared and subsequently diluted to 2 mM in MeOH to provide working stock solutions (WSS). Unused standard solutions were stored at −20° C.
(§3) Hepatocyte Preparation: Human (mixed gender), Beagle dog (male) and Sprague Dawley rat (male) cryopreserved hepatocytes were purchased from Life Technologies Corporation. Hepatocytes were removed from liquid nitrogen, quickly thawed in a 37° C. water bath and transferred to Hepatocyte Thawing/Plating Medium (Cryopreserved Hepatocyte Recovery Medium, CHRM, Life Technologies Inc.). The cells were pelleted by slow speed centrifugation (˜100×g, 6 min) and resuspended at a high cell density. Hepatocyte viability was determined by trypan blue exclusion. Hepatocyte incubation medium (Life Technologies, Inc.) was added to generate a cell density of 2.0×10^6 cells/mL.
(§4) Hepatocyte Incubations for Stability: The 2 mM WSS was diluted 1 in 200 in hepatocyte incubation medium (pH 7.4) to 10 μM. A solution containing control compounds was prepared similarly to contain 10 μM each of dextromethorphan and testosterone. The solutions of test compounds and controls at 10 μM in hepatocyte incubation medium were pre-incubated at 37° C. for 10 min. Aliquots (250 μL) of hepatocyte suspensions (at 2.0×10^6 cells/mL) were transferred to appropriate 48-well plates and pre-incubated at 37° C. for 10 minutes. Metabolism was initiated by adding 250 μL pre-incubated medium (containing test drug) to wells containing cells. A negative control reaction excluding hepatocytes was used to monitor aqueous stability and/or non-specific adsorption. The final reaction mixtures contained 5 μM of test or control compound and 1.0×10^6 cells/mL. All reactions were performed in duplicate and carried at 37° C. in an incubator. Dextromethorphan and testosterone were used as control drugs to verify hepatocyte activity.
(§5) Aliquots were removed from each metabolism reaction at 0, 0.5, 2 and 4 hours. The reactions were terminated by adding each aliquot to a vessel containing 2× volumes (80 μL) of Internal Standard Solution (acetonitrile containing 50 ng/mL 2-(2,8-dimethyl-3,4-dihydro-1H-pyrido[4,3-b]indol-5(2H)-yl)-1-(pyridin-4-yl)ethanol (ISS1), 50 ng/mL of 2-(2,8-dimethyl-3,4-dihydro-1H-pyrido[4,3-b]indol-5(2H)-yl)-1-(piperidin-1-yl)ethanone (ISS2) and 5 ng/mL diphenhydramine. Terminated reactions were centrifuged at 6000 g for 30 mins at 4° C. to remove the precipitated proteins and cell debris. Following centrifugation, 20 μL of each supernatant was transferred to a deep-well microplate and diluted with 5× volumes (100 μL) of 0.2% formic acid in water. Compound 178d samples were diluted with 5× volumes (100 μL) of 0.1% HFBA in water. Samples were analyzed by LC/MS/MS.
(§6) Calculation of Metabolism Parameters: Percent remaining was measured by dividing the analyte/IS peak area ratio at the designated sample time by the peak area ratio at time 0. ISS1 served as the IS for Compound No. 178d. ISS2 served as the IS for Compound nos. 50a, 50b, 79a, 82 and 91a. The metabolic half-life (T1/2) was calculated using all time points unless otherwise noted. The T1/2 values were calculated as 0.693/k, where k is the slope of the log analyte/internal standard peak area ratio versus time. Metabolism rate was calculated by dividing the starting concentration of substrate by the concentration of hepatocytes, then dividing by the T1/2 value.

human hepatocytes = test: Stability in the presence of human hepatocytes; type: in vitro ADME; conditions: human hepatocytes, 5 μM, 37° C., average of duplicates; ^a = 0-120 minute time points
Protocol: as §1, §2, §3, §4, §5, §6

rat hepatocytes = test: Stability in the presence of rat hepatocytes; type: in vitro ADME, Sprague Dawley rat; conditions: rat hepatocytes, 5 μM, 37° C., average of duplicates; ^a = 0-120 minute time points
Protocol: as §1, §2, §3, §4, §5, §6

In the case of `Cc1cc2c3c(n(CC(C)(O)c4ccncc4)c2cc1Cl)CCN1CCCC31` (single isomer, unassigned) [50b], the “T1/2 Dog” value (dog hepatocytes) is reported as 100^a min, the “T1/2 Human” value (human hepatocytes) is reported as 82^a min and the “T1/2 Rat” value (rat hepatocytes) is reported as greater than 4 h.
